For series [1], the system named is mouse mesenchymal stem cells (mMSC). The series is described as follows: MTT cytotoxicity assay, mMSC. It is filed as cell-based. Conditions: 48 h. On the procedure:
(§1) The in vitro cytotoxicity of newly synthesized mono- and heteronuclear platinum(II)/and zinc(II) complexes, featuring a 4,4′,4″-tri-tert-butyl-2,2′:6′,2″-terpyridine ligand (designated as C1–C5), was assessed using MTT assay procedures. This evaluation targeted various cell lines: mouse colorectal carcinoma (CT26), human colorectal carcinoma (HCT116 and SW480), and non-cancerous mouse mesenchymal stem cells (mMSC). These cell lines were exposed to synthesized complexes for 48 h, with concentrations ranging from 1.17 to 150 μM.
In the context of developing low-toxicity drugs, it is imperative to evaluate the antiproliferative activity against normal cells. The in vitro toxicity of the tested complexes toward normal mouse mesenchymal stem cells (mMSC) was examined. […] These findings indicate the possibility of enhanced in vivo tolerance for this complex.
(§2) In our study, various cell lines were cultured, including mouse colorectal carcinoma (CT26), human colorectal carcinoma (HCT116 and SW480) obtained from ATCC, USA, and mouse mesenchymal stem cells (mMSC, Gibco), New York, NY, USA). These cell lines were consistently maintained in complete Dulbecco’s Modified Eagle Medium (DMEM) supplemented with 10% fetal bovine serum (FBS) (Sigma Aldrich, St. Louis, MO, USA), 100 IU/mL penicillin, and 100 μg/mL streptomycin antibiotics (Invitrogen, Carlsbad, CA, USA). The cultures were incubated at 37 °C in a humidified atmosphere of 5% carbon dioxide (CO2). […] The viability and count of the cells were determined using Trypan blue staining, ensuring the accuracy and reliability of the experimental outcomes.
(§3) The cytotoxic effects of five newly synthesized complexes, alongside cisplatin, were assessed through the MTT assay method, in line with previously established protocols. During the exponential growth phase, cells were collected from culture flasks, counted, and then seeded in 96-well culture plates at a density of 5·10^3 cells per well. Subsequent treatment involved exposing these cells to varying concentrations of the newly synthesized complexes and cisplatin (ranging from 1.17 to 150 μM) for a duration of 48 h, with fresh complete medium serving as the control. The results were quantified relative to the control (untreated cells), providing a comparative measure of cytotoxicity. Additionally, IC50 values, representing the concentration required to inhibit 50% of the cell viability, were calculated using Microsoft Office Excel 2010. Lastly, the data were presented as percentages of viable cells in accordance with the methodology outlined in the referenced study, facilitating a comprehensive understanding of the anticancer potential of these compounds.

Series [2] concerns CT-DNA. Kind of series: Ethidium bromide/CT-DNA fluorescence quenching (EB displacement). It is filed as binding. Conditions: EB/CT-DNA 1:1, 5 µM, PBS pH 7.4, room temperature, λex 527 nm, λem 612 nm. An excerpt:
Fluorescent spectroscopy allows the determination of the intercalation potential of compounds. Intercalation involves planar aromatic molecules binding between the base pairs of DNA chains, causing them to elongate. Ethidium bromide (EB) is commonly used as a DNA intercalator and produces high levels of fluorescent emissions at 612 nm when intercalating between DNA strands. However, the addition of compounds that can intercalate between DNA strands and suppress the effects of EB will reduce fluorescent emissions. If a complex is able to replace EB, fluorescence reduction will occur, indicating the complex’s ability to bind intercalatively. Figure 3 and Figures S10–S13 show the results of fluorescence titrations in the presence of intercalator EB, where the emission intensity of a constant CT-DNA/EB solution concentration of 5 µM was monitored with increasing complex concentration up to a ratio of 5.
To determine whether the complex could displace EB from the CT-DNA-EB complex, the interactions of the complex with CT-DNA were examined in the presence of EB. The CT-DNA-EB solution was formed by combining EB and CT-DNA solutions with a concentration of 5 μM at a pH of 7.4. The impact of the complex binding to the CT-DNA was measured by analyzing the fluorescence emission spectrum after the addition of the examined complexes solution in increasing concentration, Figure 3.
The binding affinity of the complexes C1–C5 to CT-DNA via intercalation was determined using fluorescence spectroscopy. All measurements were conducted at room temperature in 0.01 M PBS with a pH of 7.4. Fluorescence measurements were performed by adding increasing complex concentrations (0–50 μM) to a CT-DNA and EB solution. Before each measurement, the system was shaken at room temperature. The fluorescence intensity was measured with the wavelength of excitation at 527 nm and the wavelength of emission at 612 nm. The width of the excitation and emission slits (10 nm) and scan rate were maintained at a constant rate. The emission of the solution was recorded in the range of 550 to 750 nm. The Stern–Volmer constants, Ksv, were determined by Equation (2). I0/I = 1 + Ksv[Q](2) [Q] is the concentration of the complex, I0 and I represent emission intensities in the absence and presence of complex, and Ksv is the Stern–Volmer constant obtained from the slope of the plot of I0/I vs. [Q] [25, 26, 27, 28].

Series [3] relates to human colorectal carcinoma (HCT116). The series is described as follows: MTT cytotoxicity assay, HCT116. Type of series: cell-based. Conditions: 48 h. How it is done:
as §1, §2, §3

Series [4] relates to human colorectal carcinoma (SW480). Kind of series: MTT cytotoxicity assay, SW480. It is filed as cell-based. The conditions noted are these: 48 h. How it is done:
as §1, §2, §3

Regarding [ZnCl2(terpy^t^Bu)] [C1], in series [1] (concentrations 1.17 to 18.75 μM), the “Cytotoxic effect on mMSC compared to cancer cells (HCT116, SW480, CT26)” value is “lower cytotoxic effect”. Moreover, the IC50 is 56.7 ± 6.93 µM in series [1] (non-cancerous cells, read-out: IC50 ± SEM, mMSCs); 88.2 ± 48.5 µM in series [3] (read-out: IC50 ± SEM, HCT 116); 106 ± 126 µM in series [4] (read-out: IC50 ± SEM, SW480). Besides, in series [2], the “Stern–Volmer constant Ksv, CT-DNA” value is recorded as 2.2 ± 0.1 10^4 M^–1. In addition, the “Selectivity Index (IC50 mMSC/IC50), HCT 116” value in series [3] came to 0.6. Further, the “Selectivity Index (IC50 mMSC/IC50), SW480” value in series [4] was 0.5.
